The record followed here is ChEMBL document CHEMBL4765403, “Augmentation of the antitumor effects of PARP inhibitors in triple-negative breast cancer via degradation by hydrophobic tagging modulation” (Eur J Med Chem, 2020).

Structures are written as SMILES. The source made the active and inactive calls. No cut-off for these calls is given here.

In experiment [1] the test system is MDA-MB-231. The experiment is described as follows: Induction of endoplasmic reticulum stress in human MDA-MB-231 cells assessed as upregulation of XBP-1s protein expression at 5 uM incubated for 48 to 72 hrs by western blot analysis. The following applies: time 48-72 hrs. It is filed as functional, cell-based. (A western blot detects proteins with antibodies after separation by electrophoresis.)

Experiment [2] has as its system MDA-MB-231. As to the kind of experiment: Induction of endoplasmic reticulum stress in human MDA-MB-231 cells assessed as upregulation of CHOP protein expression at 5 uM incubated for 48 to 72 hrs by western blot analysis. Format: functional, cell-based. The following applies: time 48-72 hrs.
Experiment [3] has as its system MDA-MB-231. As to the kind of experiment: Cytotoxicity against human MDA-MB-231 cells assessed as reduction in cell viability measured after 96 hrs by CCK8 assay. It is filed as functional, cell-based. The following applies: MDA-MB-231, 96 h. On the technique in general: Tetrazolium dyes change colour on reduction, which living cells bring about.
The subject of experiment [4] is MDA-MB-231. As to the kind of experiment: Induction of autophagy in human MDA-MB-231 cells assessed as upregulation of LC3B protein expression at 5 uM incubated for 48 to 72 hrs by western blot analysis. Format: functional, cell-based. The note with it: time 48-72 hrs.
Experiment [5] concerns the target Poly [ADP-ribose] polymerase 1 (Homo sapiens) (UniProt P09874). As to the kind of experiment: Induction of PARP1 degradation in triple-negative human MDA-MB-231 cells assessed as fold change in PARP1 protein expression at 10 uM incubated for 48 hrs by Western blot analysis relative to control. Format: cell-based.
Experiment [6] has the same target. As to the kind of experiment: Induction of PARP1 degradation in triple negative human MDA-MB-231 cells assessed as fold change in PARP1 protein expression at 5 uM incubated for 48 hrs by Western blot analysis relative to control. It is filed as cell-based.
For experiment [7] the target is unchanged. As to the kind of experiment: Induction of PARP1 degradation in triple-negative human MDA-MB-231 cells assessed as fold change in PARP1 protein expression at 2.5 uM incubated for 48 hrs by Western blot analysis relative to control. Format: cell-based.
Experiment [8] relates to MDA-MB-231. The experiment is described as follows: Cytotoxicity against triple-negative human MDA-MB-231 cells assessed as reduction in cell viability measured after 48 hrs by CCK8 assay. Format: functional, cell-based. The note with it: MDA-MB-231, 48 h.

Chain of Poly [ADP-ribose] polymerase 1 (Homo sapiens) (P09874 whole entry): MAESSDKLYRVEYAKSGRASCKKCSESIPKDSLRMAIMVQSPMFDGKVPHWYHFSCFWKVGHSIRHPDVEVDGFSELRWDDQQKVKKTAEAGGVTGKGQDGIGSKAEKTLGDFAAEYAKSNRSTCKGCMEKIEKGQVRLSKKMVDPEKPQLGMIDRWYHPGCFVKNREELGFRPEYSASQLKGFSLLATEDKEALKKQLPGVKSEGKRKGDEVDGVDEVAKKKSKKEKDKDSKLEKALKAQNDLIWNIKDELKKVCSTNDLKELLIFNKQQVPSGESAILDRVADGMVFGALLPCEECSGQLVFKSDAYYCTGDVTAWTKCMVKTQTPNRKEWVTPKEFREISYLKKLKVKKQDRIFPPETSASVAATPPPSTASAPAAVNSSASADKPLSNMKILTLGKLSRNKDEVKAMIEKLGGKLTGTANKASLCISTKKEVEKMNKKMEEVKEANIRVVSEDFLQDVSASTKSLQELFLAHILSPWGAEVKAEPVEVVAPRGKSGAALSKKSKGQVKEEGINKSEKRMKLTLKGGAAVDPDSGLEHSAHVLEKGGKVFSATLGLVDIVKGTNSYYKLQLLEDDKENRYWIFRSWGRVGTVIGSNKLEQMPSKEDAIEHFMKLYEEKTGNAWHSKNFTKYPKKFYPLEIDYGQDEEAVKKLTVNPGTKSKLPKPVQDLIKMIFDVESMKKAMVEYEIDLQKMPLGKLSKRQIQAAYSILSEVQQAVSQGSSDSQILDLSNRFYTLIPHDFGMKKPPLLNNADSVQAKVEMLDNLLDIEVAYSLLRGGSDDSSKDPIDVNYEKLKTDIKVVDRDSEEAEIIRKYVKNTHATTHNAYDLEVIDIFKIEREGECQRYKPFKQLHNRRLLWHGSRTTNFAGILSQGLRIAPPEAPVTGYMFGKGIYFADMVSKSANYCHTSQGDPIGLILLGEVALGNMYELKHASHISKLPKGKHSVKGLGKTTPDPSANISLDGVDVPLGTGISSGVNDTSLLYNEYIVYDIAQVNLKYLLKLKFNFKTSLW

As a reminder, the IC50 is the concentration at which inhibition is half-maximal. As to `O=C(c1cc(Cc2n[nH]c(=O)c3ccccc23)ccc1F)N1CCN(C(=O)C2CC2)CC1` [OLAPARIB], the outcome with MDA-MB-231 [1], with MDA-MB-231 [2] and in the experiment with MDA-MB-231 [4] was inactive. Further, the IC50 in the experiment on MDA-MB-231 [3] is 32.4 µM.
On to `O=C(c1cc(Cc2n[nH]c(=O)c3ccccc23)ccc1F)N1CCN(C(=O)C(C2CCCCC2)C2CCCCC2)CC1`, for which the results for the fold change (FC) in experiment [5], in experiment [6] and in experiment [7] were 0.7, 0.7 and 0.6, respectively.
`O=C(NCCN1CCN(C(=O)c2cc(Cc3n[nH]c(=O)c4ccccc34)ccc2F)CC1)C(C1CCCCC1)C1CCCCC1`: the fold change (FC) in experiment [5], in experiment [6] and in experiment [7] was 0.9 throughout.
Regarding `O=C(CC1c2ccccc2-c2ccccc21)NCCCCN1CCN(C(=O)c2cc(Cc3n[nH]c(=O)c4ccccc34)ccc2F)CC1`, the fold change (FC) in experiment [5], in experiment [6] and in experiment [7] was 0.5 throughout. Further, the IC50 with MDA-MB-231 [8] was more than 50 µM.
`O=C(NCCCCN1CCN(C(=O)c2cc(Cc3n[nH]c(=O)c4ccccc34)ccc2F)CC1)C(C1CCCCC1)C1CCCCC1`: the fold change (FC) in experiment [5] amounted to 1.2; in experiment [6], 0.8; in experiment [7] it was 1.1.
The matching figures for `O=C(CC12CC3CC(CC(C3)C1)C2)NCCCCCCN1CCN(C(=O)c2cc(Cc3n[nH]c(=O)c4ccccc34)ccc2F)CC1`: 0.8, 1.2 and 0.9.
Consider `O=C(NCCN1CCN(C(=O)c2cc(Cc3n[nH]c(=O)c4ccccc34)ccc2F)CC1)C(c1ccccc1)c1ccccc1`, for which the values for the fold change (FC) in experiment [5], in experiment [6] and in experiment [7] were 1.3, 1.1 and 1.3, respectively.
As for `O=C(CC1c2ccccc2-c2ccccc21)NCCN1CCN(C(=O)c2cc(Cc3n[nH]c(=O)c4ccccc34)ccc2F)CC1`, the fold change (FC) in experiment [5] stood at 0.4; in experiment [6], 0.3; in experiment [7], 0.4. Also, the IC50 in the experiment with MDA-MB-231 [8] came to 26.2 µM.
Take `CC(C)Cc1ccc([C@H](C)C(=O)NCCCCCCN2CCN(C(=O)c3cc(Cc4n[nH]c(=O)c5ccccc45)ccc3F)CC2)cc1`: the fold change (FC) is 0.3 in experiment [5], 0.7 in experiment [6] and 1.2 in experiment [7]. The concentration for half-maximal inhibition (IC50) in the experiment on MDA-MB-231 [8] worked out at 15.9 µM.
Consider `CC(C)Cc1ccc([C@H](C)C(=O)N2CCN(C(=O)c3cc(Cc4n[nH]c(=O)c5ccccc45)ccc3F)CC2)cc1`, for which the fold change (FC) in experiment [5] stood at 0.8; in experiment [6] it was 1; in experiment [7] it was 0.8.
Take `CC(C)Cc1ccc([C@H](C)C(=O)NCCN2CCN(C(=O)c3cc(Cc4n[nH]c(=O)c5ccccc45)ccc3F)CC2)cc1`: the fold change (FC) in experiment [5] was 0.7; in experiment [6], 0.8; in experiment [7], 0.9.
As for `O=C(NCCCCCCN1CCN(C(=O)c2cc(Cc3n[nH]c(=O)c4ccccc34)ccc2F)CC1)C(C1CCCCC1)C1CCCCC1`, the fold change (FC) in experiment [5] worked out at 0.3; in experiment [6] it was 0.8; in experiment [7] it was 0.9. In the experiment with MDA-MB-231 [8], the half-maximal inhibitory concentration (IC50) is more than 50 µM.
Turning to `O=C(NCCCCCCN1CCN(C(=O)c2cc(Cc3n[nH]c(=O)c4ccccc34)ccc2F)CC1)C(c1ccccc1)c1ccccc1`, the fold change (FC) in experiment [5] turned out to be 1.3; in experiment [6], 1.5; in experiment [7], 1.4.
On to `c1ccc2c(c1)Cc1ccccc1-2` [FLUORENE], for which the IC50 with MDA-MB-231 [8] is more than 50 µM.
As to `O=C(c1cc(Cc2n[nH]c(=O)c3ccccc23)ccc1F)N1CCN(C(=O)C(c2ccccc2)c2ccccc2)CC1`, the figures for the fold change (FC) in experiment [5], in experiment [6] and in experiment [7] were 1.1, 1 and 1, respectively.
With `O=C(NCCCCN1CCN(C(=O)c2cc(Cc3n[nH]c(=O)c4ccccc34)ccc2F)CC1)C(c1ccccc1)c1ccccc1`, the fold change (FC) in experiment [5] worked out at 1.2; in experiment [6] it was 1.6; in experiment [7], 1.4.
For the compound `O=C(CC12CC3CC(CC(C3)C1)C2)NCCCCN1CCN(C(=O)c2cc(Cc3n[nH]c(=O)c4ccccc34)ccc2F)CC1`, the fold change (FC) turned out to be 1.1 in experiment [5], 1.2 in experiment [6] and 1.1 in experiment [7].
For the compound `O=C(CC12CC3CC(CC(C3)C1)C2)N1CCN(C(=O)c2cc(Cc3n[nH]c(=O)c4ccccc34)ccc2F)CC1`, the fold change (FC) in experiment [5] came to 0.8; in experiment [6], 0.7; in experiment [7], 0.9.
For `CC(C)Cc1ccc([C@H](C)C(=O)NCCCCN2CCN(C(=O)c3cc(Cc4n[nH]c(=O)c5ccccc45)ccc3F)CC2)cc1`, in that order: 1.7, 1.2 and 0.9.
The matching figures for `O=C(CC1c2ccccc2-c2ccccc21)NCCCCCCN1CCN(C(=O)c2cc(Cc3n[nH]c(=O)c4ccccc34)ccc2F)CC1`: 0.4, 0.5 and 0.5.
The matching figures for `O=C(CC12CC3CC(CC(C3)C1)C2)NCCN1CCN(C(=O)c2cc(Cc3n[nH]c(=O)c4ccccc34)ccc2F)CC1`: 1.3, 1.2 and 1.1.
